From US11910794B2, “Solutions and methods for long-term pollen storage” (Monsanto Technology LLC, priority 2021, dated 2024)
Like-named read-outs stand apart in the source and are kept apart here.

What was measured:
pollen [1] = conditions: not told
Method: (§1) As used herein the term “impermeable” refers to a state where an isotonic solution of the solute when first mixed with pollen produces less than about 10% pollen lysis over the first 4 hours that the pollen is in contact with the solution. As used herein the term “permeable” refers to a state where an isotonic solution of the cryoprotectant when first mixed with pollen produces greater than 50% pollen lysis over the first 4 hours that the pollen is in contact with the solution.
(§2) The pollen permeability of numerous cryoprotectants was evaluated to initially identify suitable candidates for use in the pollen storage solution. Suitable cryoprotectants will be permeable to the pollen in the solution. Suitable solutes will maintain the tonicity of the pollen storage solution at a concentration between about 0.5M and about 3.0M. […] Pollen storage solutions comprising 1.0M sucrose, 10 mM MES, and 0.5M, 1.0M, or 1.5M of cryoprotectant were evaluated for pollen toxicity.

corn pollen = experiment: Pollen toxicity: germination of corn pollen after incubation in pollen storage solutions; format: cell-based, corn (Zea mays); conditions: 1.0M sucrose, 10 mM MES, 0.5M, 1.0M or 1.5M cryoprotectant; 15 minutes at room temperature or 4° C.; germination plates; FIG. 1
Method: Pollen storage solutions comprising 1.0M sucrose, 10 mM MES, and 0.5M, 1.0M, or 1.5M of cryoprotectant were evaluated for pollen toxicity. Briefly, corn pollen was suspended in each pollen storage solution at either room temperature or 4° C. and incubated for 15 minutes. The pollen storage solutions were applied to standard germination plates using an airbrush and images of the plates were obtained to evaluate germination. A 1.0M solution of sucrose was used as the positive control.

pollen [2] = experiment: Pollen permeability of cryoprotectants; conditions: permeability test of cryoprotectants
Method: as §1, §2

pollen permeability of cryoprotectant (pollen [1]) | Compound | germination rates (corn pollen) | pollen permeability of cryoprotectant (pollen [2])
among the most permeable | C[S+](C)[O-] [DMSO, dimethyl sulfoxide] | highest germination rates | –
– | OCCO [ethylene glycol] | highest germination rates | among the most permeable
